In US20170368120A1, “Use of compositions of water/alcohol extracts of Antrodia cinnamomea cut-log wood cultivated fruiting body and solid-state cultivated mycelium as auxiliaries for anti-cancer agents” (Taiwan Leader Biotech Corp, priority 2016, published 2017):

Assays:
CFU-GM in bone marrow = test: CFU-GM colony test in bone marrow of 5-FU treated mice; type: in vivo, C57BL/6 mice; conditions: 5-FU alone 200 mg/kg ip at first day; marrow at day 11
Protocol: (§1) The effect of the A. cinnamomea composition (L) on recovering the blood cell reducing caused by the application of chemotherapy drug 5-FU was evaluated in the colony test of CFU-GM in bone marrow. C57BL/6 mice of eight-week old, purchased from the National Laboratory Animal Center, were used in the test. The tested animal groups included the control, 5-FU, 5FU+L, 5-FU+0.5L, 5-FU+0.25L and 5-FU+Angiotensin II (Aii) groups, with 6 mice in each group. After the intraperitoneal injection of 5-FU (200 mg/kg) at first day, the test drug A. cinnamomea composition (L) was orally administered to the animals, or the positive control drug Angiotensin II (Aii, 100 μg/kg) was intraperitoneally injected to the animals at day 4˜10. Dosages of the A. cinnamomea composition (L) were used as follow: 1× dose of 680 mg/kg, 0.5× dose of 340 mg/kg and 0.25× dose of 170 mg/kg. Whole blood was collected from cheek before sacrificing the animals at day 11, and the Complete Blood Count (CBC) was performed to record the number of blood cells, including white blood cells, red blood cells, lymphocytes and neutrophils in peripheral blood. The femur was removed from the sacrificed mouse at day 11 of the experiment. The bone marrow cells were collected for the cultivation of CFU-GM. Cells was cultured for 7 days, and the number of CFU-GM colonies was counted.

[1] = test system: MKN45 gastric cancer cells; test: Gastric tumor growth in MKN45 tumor-bearing nude mice; type: in vivo; conditions: 5-FU injection
Text: In this example, the effects of the A. cinnamomea composition of solid-state cultivated mycelium water/alcohol extracts and cut-log wood cultivated fruiting body water/alcohol extracts on gastric tumor growth were further evaluated in an animal model. The test A. cinnamomea compositions included 5% FB/95% SC, 10% FB/90% SC, 20% FB/80% SC, and 40% FB/60% SC, respectively. The animal used in the experiment is an immune deficient mouse (nude mice) implanted MKN45 gastric cancer cells. 10 days after the cancer cell implantation, the animals were orally given the tested A. cinnamomea compositions (300 mg/kg/day) by oral gavage for 21 days. The treated animals were scarified. The tumor was isolated and weighted, as the key indicator for assessing the inhibition of tumor growth.

[2] = test system: Human gastric cancer MKN-45 cells; test: Auxiliary effect on 5-FU in MKN-45 tumor-bearing nude mice; type: in vivo, Balb/c nu/nu mice; conditions: 5-FU alone 25 mg/kg ip three times a week
Protocol: In this example, the auxiliary effect of the A. cinnamomea composition on the anti-tumor agent 5-FU was confirmed in an animal model. Balb/c nu/nu mice of six-week old, purchased from the National Laboratory Animal Center, were used in the test. The 5-FU (25 mg/kg, ip) treated group was used as positive group, with drug administration frequency of three times a week. The A. cinnamomea composition (L) of solid-state cultivated mycelium water/alcohol extract and cut-log wood cultivated fruiting body water/alcohol extract was orally administered to mice once a day with following dosages: 1× dose of 680 mg/kg, 0.5× dose of 340 mg/kg, 0.25× dose of 170 mg/kg and 0.125× dose of 85 mg/kg. If the mice had been injected with 5-FU, the L was orally treated four hours after the application of 5-FU. Human gastric cancer MKN-45 cells (3×10^6) were implanted into immune deficient nude mice, and the drug administration was started when the tumor size reached to 100˜200 mm^3. The tested animal groups included the control, 5-FU, 5FU+L, 5-FU+0.5L, 5-FU+0.25L and 5-FU+0.125L groups, with 8 mice in each group.

[3] = test system: blood cells in peripheral blood; test: Complete Blood Count in 5-FU treated mice; type: in vivo, C57BL/6 mice; conditions: 5-FU alone 200 mg/kg ip, compared to control
Protocol: as §1

- CFU-GM colony number (CFU-GM in bone marrow): 1,869 colonies/10^6 marrow cells
- number of lymphocytes [3]: significantly reduced
- number of neutrophils [3]: significantly reduced
- number of red blood cells [3]: significantly reduced
- number of white blood cells [3]: significantly reduced
SMILES: O=c1[nH]cc(F)c(=O)[nH]1 [5-FU, 5-fluorouracil]
- tumor weight [1]: significant decrease in tumor weight
- tumor weight [2]: 0.85 g
